Experimental data as given in patent publication US11014895B2, “Heterocyclic urea compound, and drug composition and application thereof” (CHINA PHARMACEUTICAL UNIVERSITY, priority 2017, dated 2021).

Key:
IDO1 enzyme = IDO1 enzyme (Homo sapiens, UniProt P14902); test: Determination of biochemical activity of IDO1 enzyme (absorbance at 320 nm); details: room temperature, 3 hours
Protocol: (1) Method for Determining Biochemical Activity of IDO1 Enzyme
Firstly, 15 μl of buffer solution of sodium hydrogen phosphate (PH:7-8), 5 μl of reaction buffer solution containing a proper amount of IDO-1 enzyme and heterocyclic urea compound prepared by the invention were added into wells of a microplate, mixed evenly, and reacted at room temperature for 3 hours; then a light absorption value at 320 nm wavelength was detected by using Envision Multilabel Reader of PE company, an inhibition rate of the heterocyclic urea compound on the enzyme reaction was calculated according to an absorption ratio, and an IC50 value of the heterocyclic urea compound was calculated through analysis by GraphPad.

[1] = molecular target: T1, IDO1 enzyme in the Hela cell (Homo sapiens, UniProt P14902); test: Cell activity: interferon γ-stimulated Hela cells, absorbance of supernatant at 480 nm; type: cell-based; details: interferon γ 100 ng/ml, 72 hours
T1 construct: endogenous in cells; host or cells: HeLa cells stimulated with interferon γ (100 ng/ml)
Protocol: (2) Method for Determining Cell Activity
Hela cells were cultured and passaged in a DMEM medium supplemented with antibiotics in a 37° C. CO2 incubator, inoculated into a 96-well plate for overnight culture, then 1 μl of heterocyclic urea compound with appropriate concentration was added to each well, and then 100 μl of interferon γ (final concentration was 100 ng/ml) was added. After the cells were continuously cultured for 72 hours, 70 μl of cell culture supernatant was added to a 96-well V-bottom plate, 5 μl of trichloroacetic acid (6.1 N) was added to each well, incubated at 50° C. for 30 min, then taken out and centrifuged at […] for 10 min. The above centrifuged supernatant was transferred to a 384-well microplate (20 μl/well), then 20 μl of 2% didimethylaminobenzaldehyde acetic acid solution was added to each well, shaken and mixed evenly, then photometric absorption was performed at 480 nm, and values were measured.

Sequence of IDO1 enzyme (P14902 whole entry): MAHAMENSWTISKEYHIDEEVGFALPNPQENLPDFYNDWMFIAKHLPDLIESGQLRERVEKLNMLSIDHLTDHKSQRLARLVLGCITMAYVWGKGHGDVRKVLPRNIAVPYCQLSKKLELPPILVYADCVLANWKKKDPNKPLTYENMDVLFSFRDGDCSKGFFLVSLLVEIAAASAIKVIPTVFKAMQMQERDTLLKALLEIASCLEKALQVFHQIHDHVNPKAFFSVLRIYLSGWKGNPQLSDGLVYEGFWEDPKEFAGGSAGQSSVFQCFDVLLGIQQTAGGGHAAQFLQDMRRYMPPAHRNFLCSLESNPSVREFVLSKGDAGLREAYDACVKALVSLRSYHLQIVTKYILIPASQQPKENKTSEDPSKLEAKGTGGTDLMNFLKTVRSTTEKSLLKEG
T1 sequence (P14902 whole entry): as above

SMILES | IC50 (IDO1 enzyme) | IC50 [1]
NS(=O)(=O)N1CCC(NC(=O)Nc2nonc2/C(=N/O)Nc2ccc(F)c(Br)c2)CC1 [Embodiment 15, (Z)-1-(4-(N-(3-bromo-4-fluorophenyl)-N′-hydroxyaminoiminomethyl)-1,2,5-oxadiazole-3-substituted)-3-(1(aminosulfonyl)piperidine-4-substituted)urea] | < 0.001 µM | < 0.001 µM
NS(=O)(=O)NCCCNC(=O)Nc1nonc1/C(=N/O)Nc1ccc(F)c(Br)c1 [Embodiment 18, (Z)-1-(4-(N-(3-bromo-4-fluorophenyl)-N′-hydroxyaminoiminomethyl)-1,2,5-oxadiazole-3-substituted)-3-(3-aminosulfonylamino-propyl)urea] | < 0.001 µM | < 0.001 µM
O=C(Nc1conc1/C(=N/O)Nc1ccc(F)c(Br)c1)NC1CC1 [Embodiment 107, (Z)-1-(4-(N-(3-bromo-4-fluorophenyl)-N′-hydroxyaminoiminomethyl)-isoxazole-3-substituted)-4-cyclopropylurea] | > 1 µM | > 1 µM
NCCNC(=O)Nc1cocc1/C(=N/O)Nc1ccc(F)c(Br)c1 [Embodiment 69, (Z)-1-(4-(N-(3-bromo-4-fluorophenyl)-N′-hydroxyaminoiminomethyl)-furan-3-substituted)-3-(2-aminoethyl)urea] | 0.1 to 1 µM | 0.1 to 1 µM
O=C(Nc1nonc1/C(=N/O)Nc1ccc(F)c(Br)c1)NC1CCOCC1 [Embodiment 10, (Z)-1-(4-(N-(3-bromo-4-fluorophenyl)-N′-hydroxyaminoiminomethyl)-1,2,5-oxadiazole-3-substituted)-3-(tetrahydro-2H-pyran-4-substituted)urea] | < 0.001 µM | < 0.001 µM
NC1CCC(NC(=O)Nc2cocc2/C(=N/O)Nc2ccc(F)c(Br)c2)CC1 (stereo not drawn) [Embodiment 66, (Z)-1-(4-(N-(3-bromo-4-fluorophenyl)-N′-hydroxyaminoiminomethyl)-furan-3-substituted)-3-(4-aminocyclohexyl)urea] | 0.1 to 1 µM | 0.1 to 1 µM
COc1ccc(NC(=S)Nc2nonc2/C(=N/O)Nc2ccc(F)c(Br)c2)c(F)c1 [Embodiment 120] | > 1 µM | > 1 µM
COc1ccc(NC(=O)Nc2nonc2/C(=N/O)Nc2ccc(F)c(Br)c2)cc1C(F)(F)F [Embodiment 21, (Z)-1-(4-(N-(3-bromo-4-fluorophenyl)-N′-hydroxyaminoiminomethyl)-1,2,5-oxadiazole-3-substituted)-3-(4-methoxy-2-trifluoromethylphenyl)urea] | 0.1 to 1 µM | 0.1 to 1 µM
COc1ccc(NC(=O)Nc2nonc2/C(=N/O)Nc2ccc(F)cc2)cc1 [Embodiment 54, (Z)-1-(4-(N-(4-fluorophenyl)-N′-hydroxyaminoiminomethyl)-1,2,5-oxadiazole-3-substituted)-3-(4-methoxyphenyl)urea] | 0.1 to 1 µM | 0.1 to 1 µM
N=C(Nc1nonc1/C(=N/O)Nc1ccc(F)c(Br)c1)NC1CCCC1 [Embodiment 146, (Z)-1-(4-(N-(3-bromo-4-fluorophenyl)-N′-hydroxyaminoiminomethyl)-1,2,5-oxadiazole-3-substituted)-3-cyclopentylguanidine] | > 1 µM | > 1 µM
O=C(NCCO)Nc1conc1/C(=N/O)Nc1ccc(F)c(Br)c1 [Embodiment 110] | < 0.001 µM | < 0.001 µM
N=C(Nc1conc1/C(=N/O)Nc1ccc(F)c(Cl)c1)NC1CCCCC1 [Embodiment 156, (Z)-1-(4-(N-(3-chloro-4-fluorophenyl)-N′-hydroxyaminoiminomethyl)-isoxazole-3-substituted)-4-cyclohexylguanidine] | 0.1 to 1 µM | 0.1 to 1 µM
O=C(Nc1nocc1/C(=N/O)Nc1ccc(F)c(Br)c1)NC1CCCC1 [Embodiment 83, (Z)-1-(4-(N-(3-bromo-4-fluorophenyl)-N′-hydroxyaminoiminomethyl)-isoxazole-3-substituted)-3-(cyclopentyl)urea] | > 1 µM | > 1 µM
NC1CCC(NC(=S)Nc2nonc2/C(=N/O)Nc2ccc(F)c(Br)c2)CC1 (stereo not drawn) [Embodiment 126, (Z)-1-(4-(N-(3-bromo-4-fluorophenyl)-N′-hydroxyaminoiminomethyl)-1,2,5-oxadiazole-3-substituted)-3-(4-aminocyclohexyl)thiourea] | 0.1 to 1 µM | 0.1 to 1 µM
O=C(Nc1conc1/C(=N/O)Nc1ccc(F)c(Br)c1)NC1CCNCC1 [Embodiment 106] | < 0.001 µM | < 0.001 µM
O/N=C(\Nc1ccc(F)c(Br)c1)c1cocc1NC(=S)Nc1ccccc1 [Embodiment 137, (Z)-1-(4-(N-(3-bromo-4-fluorophenyl)-N′-hydroxyaminoiminomethyl)-furan-3-substituted)-3-phenylthiourea] | 0.1 to 1 µM | 0.1 to 1 µM
COc1ccc(NC(=O)Nc2nonc2/C(=N/O)Nc2ccc(F)c(Cl)c2)cc1 [Embodiment 22, (Z)-1-(4-(N-(3-chloro-4-fluorophenyl)-N′-hydroxyaminoiminomethyl)-1,2,5-oxadiazole-3-substituted)-3-(4-methoxyphenyl)urea] | 0.1 to 1 µM | 0.1 to 1 µM
NC1CCC(NC(=O)Nc2nocc2/C(=N/O)Nc2ccc(F)c(Br)c2)CC1 (stereo not drawn) [Embodiment 87, (Z)-1-(4-(N-(3-bromo-4-fluorophenyl)-N′-hydroxyaminoiminomethyl)-isoxazole-3-substituted)-3-(4-aminocyclohexyl)urea] | < 0.001 µM | < 0.001 µM
N=C(Nc1cocc1/C(=N/O)Nc1ccc(F)c(Br)c1)NC1CCCCC1 [Embodiment 162, (Z)-1-(4-(N-(3-bromo-4-fluorophenyl)-N′-hydroxyaminoiminomethyl)-furan-3-substituted)-3-cyclohexylguanidine] | 0.1 to 1 µM | 0.1 to 1 µM
O/N=C(\Nc1ccc(F)c(Br)c1)c1cocc1NC(=S)NC1CCCCC1 [Embodiment 138, (Z)-1-(4-(N-(3-bromo-4-fluorophenyl)-N′-hydroxyaminoiminomethyl)-furan-3-substituted)-3-cyclohexylthiourea] | 0.1 to 1 µM | 0.1 to 1 µM
O=C(Nc1nonc1/C(=N/O)Nc1ccc(F)c(Br)c1)Nc1csc2ccccc12 [Embodiment 39, (Z)-1-(4-(N-(3-bromo-4-fluorophenyl)-N′-hydroxyaminoiminomethyl)-1,2,5-oxadiazole-3-substituted)-3-(benzothiophene-3-substituted)urea] | 0.1 to 1 µM | 0.1 to 1 µM
O=C(Nc1nocc1/C(=N/O)Nc1ccc(F)c(Cl)c1)NC1CCCCC1 [Embodiment 99, (Z)-1-(4-(N-(3-chloro-4-fluorophenyl)-N′-hydroxyaminoiminomethyl)-isoxazole-3-substituted)-3-(cyclohexyl)urea] | 0.1 to 1 µM | 0.1 to 1 µM
COc1ccc(NC(=O)Nc2nonc2/C(=N/O)Nc2ccc(F)c(Br)c2)c(F)c1 [Embodiment 20, (Z)-1-(4-(N-(3-bromo-4-fluorophenyl)-N′-hydroxyaminoiminomethyl)-1,2,5-oxadiazole-3-substituted)-3-(4-methoxy-2-fluorophenyl)urea] | 0.1 to 1 µM | 0.1 to 1 µM
COc1ccc(NC(=S)Nc2nonc2/C(=N/O)Nc2ccc(F)c(Br)c2)cc1 [Embodiment 115, (Z)-1-(4-(N-(3-bromo-4-fluorophenyl)-N′-hydroxyaminoiminomethyl)-1,2,5-oxadiazole-3-substituted)-3-(4-methoxyphenyl)thiourea] | 0.1 to 1 µM | 0.1 to 1 µM
